Source: US4210667A, “Pharmaceutical preparations containing coumarin carboxylic acid derivatives” (Pfizer Inc., priority 1979, dated 1980)

Assays:
aldose reductase = molecular target: T1, aldose reductase (Bos taurus, UniProt P16116); assay: Aldose reductase inhibitory activity (partially purified enzyme from calf lens); format: biochemical; conditions: 10^-4 M, relative to untreated controls, Examples 2, 4, 5: average of two tests, read-out: Degree of Inhibition at 10^-4 Molar
T1 construct: partially purified aldose reductase enzyme obtained from calf lens; from tissue; host or cells: calf lens
From the text: (§1) The ability of the active ingredients of the preparations, the derivatives,to control chronic diabetic complications and enzymatic reduction of aldoses may be determined by a number of standard biological or pharmacological tests. These include (1) measuring the ability to inhibit the enzyme activity or isolated aldose reductase; (2) measuring the ability to reduce or inhibit sorbitol accumulation in the sciatic nerve of acutely streptozotocinized (i.e., diabetic) rats; (3) measuring the ability to reverse already-elevated sorbitol levels in the sciatic nerve and lens of chronic streptozocin-induced diabetic rats; (4) measuring the ability to prevent or inhibit galactitol formation in the lens of acutely galactosemic rats; and (5) measuring the ability to delay cataract formation and reduce the severity of lens opacities in chronic galactosemic rats.
The derivatives prepared in Examples 1-7 were tested for their ability to reduce or inhibit aldose reductase enzyme activity, following the procedure described in U.S. Pat. No. 3,821,383 and based on the procedure of Hayman et. al., Journal of Biological Chemistry, 240, 877 (1965). The substrate employed was partially purified aldose reductase enzyme obtained from calf lens. The drugs were tested at a level of 10^-4 M to determine the degree of inhibition of enzyme activity relative to untreated controls.

[1] = test system: sorbitol accumulation in the sciatic nerve of streptozotocinized (i.e., diabetic) rats; assay: Inhibition of sorbitol accumulation in the sciatic nerve of streptozotocinized (diabetic) rats; format: in vivo, rat; conditions: 25 mg./kg. t.i.d. oral, at 4, 8 and 24 hours after streptozotocin; measured at 27 hours; vs untreated control; Examples 1, 5: average of two tests
From the text: as §1
Some of the Examples of derivatives prepared above were also tested for their ability to reduce or inhibit sorbitol accumulation in the sciatic nerve of streptozotocinized (i.e., diabetic) rats essentially by the procedure described in U.S. Pat. No. 3,821,383. In the present study, the amount of sorbitol accumulation in the sciatic nerves was measured 27 hours after induction of diabetes. The compounds were administered orally at the dose level indicated at 4, 8 and 24 hours following the administration of streptozotocin. The results obtained in this manner are presented in terms of percent inhibition (%) afforded by the test compound compared to the control where no compound was administered (i.e., the untreated animal where sorbitol levels normally rise from approximately […] tissue to as high as […] tissue in the 27-hour test period).

With `Cc1cc2oc(=O)c(C)c(CC(=O)O)c2cc1C` [Example 1, 3,6,7-trimethylcoumarin-4-acetic acid] the inhibition at 100 µM (aldose reductase) was 81% and the “% Inhibition at Dose (sorbitol accumulation in sciatic nerve)” value (shortened to “% Inhibition at Dose”) [1] was 21%.

In the case of `O=C(O)Cc1cc(=O)oc2c1cc(Cl)c1ccccc12` [Example 2, 6-chloro-1:2-alpha-naphthapyrone-4-acetic acid], the inhibition at 100 µM (aldose reductase) is reported as 91% and the “% Inhibition at Dose” value [1] is reported as 9%.

With `Cc1cc(C)c2c(CC(=O)O)cc(=O)oc2c1` [Example 3, 5,7-dimethylcoumarin-4-acetic acid] the inhibition at 100 µM (aldose reductase) was 91% and the “% Inhibition at Dose” value [1] was 11%.

`Cc1ccc2c(CC(=O)O)cc(=O)oc2c1` [Example 4, 7-methylcoumarin-4-acetic acid] was tested, and the inhibition at 100 µM (aldose reductase) was 94%.

For `Cc1cc2oc(=O)cc(CC(=O)O)c2cc1C` [Example 5, 6,7-dimethylcoumarin-4-acetic acid], the inhibition at 100 µM (aldose reductase) was 94% and the “% Inhibition at Dose” value [1] was 4%.

Compound `Cc1cc(Cl)cc2c(C(=O)O)cc(=O)oc12` [Example 6, 6-chloro-8-methylcoumarin-4-carboxylic acid] has an inhibition at 100 µM (aldose reductase) of 65%.
